# Measurements reported in patent US5129951A, “Aromatic aldehydes and alcohols as potato tuber sprout inhibitors” (priority 1991, dated 1992).
# Columns and labels:
# potato = details: Aliaga and Feldheim (1985); cited from earlier work
# potato tubers [1] = test: Tuber texture and quality 14 days after direct application of aromatic compounds (Example 3); details: for Tuber Texture: control SS
# Experimental: (§2) Because the aromatic aldehydes and alcohols may be applied to the stored potatoes by methods other than as volatiles, direct application of the compounds either as pure chemicals or as emulsions was also studied. Emulsions were prepared as either 1% or 10% (v/v) of each compound in distilled water containing 0.05% (v/v) Tween 80 as an emulsifier (control tubers were treated with Tween 80 only). Tubers were treated by dipping each tuber in the test emulsion for 10 seconds, whereupon excess liquid was allowed to drain off. Pure compounds in liquid phase were applied with an atomizing sprayer, ensuring that the entire tuber surface was coated. Each tuber was sprayed with approximately 0.1-0.2 ml of each compound tested. Six tubers per treatment were used, with two replicates, and all experiments were repeated once.
# potato tubers [2] = test: Tuber texture/quality after exposure to compounds in headspace gas for 7 days (Example 1); details: 7 days in saturated headspace gas, 25° C.
# potato tubers [3] = test: Sprout inhibition of tubers exposed to compounds in headspace gas for 7 days (Example 1); type: in vivo, Solanum tuberosum L. cv `Norchip`; details: 7 days in saturated headspace gas, 25° C.; for % Eyes Sprouted: dark, control 100, LSD (0.05) 12
# fungi [4] = test: Fungal growth 14 days after direct application of aromatic compounds (Example 3); type: in vivo; details: control +; further: key: -: no fungi visible; +: = some fungi; ++: heavy fungal growth
# Experimental: as §2
# fungi [5] = test: Fungal growth on tubers after removal from exposure to volatilized aromatics (Example 2); type: in vivo
# Experimental: (§1) Each treatment consisted of placing the tubers in sealed 9.2 l flasks containing excess levels of the treatment compounds at 25° C. as in Example 1. Three tubers were then removed from each treatment after 1, 2, 4, 7, and 10 days, and placed in flasks containing fresh humidified air (free of any additional volatilized compounds) at 25° C. Control tubers were placed in sealed flasks lacking any added compounds and three were removed after 1 and 10 days. Fourteen days after removal from the sealed flasks containing treatment compounds, all tubers were examined for percentage of eyes sprouted, tuber texture, and fungal growth. Each treatment was replicated once and each experiment was repeated once.
# potato tubers [6] = test: Tuber sprouting after removal from exposure to volatilized aromatics for 1, 2, 4, 7 or 10 days (Example 2); type: in vivo, Solanum tuberosum L. cv `Norchip`; details: 14 days after removal; for % Eyes Sprouted: 25° C., LSD (0.05) 24
# Experimental: as §1
# fungi [7] = test: Fungal growth on tubers exposed to compounds in headspace gas for 7 days (Example 1); type: in vivo; on Fungal growth: key: -: no fungi visible; +: = some fungi; ++: heavy fungal growth
# Source text: (control flasks lacked any compounds).
# [8] = cited from earlier work; for Temperature at Which Vapor Pressure Equals 1 mm Hg: vapor pressure 1 mm Hg
# potato tubers [9] = test: Tuber sprouting 14 days after direct application of aromatic compounds (Example 3); type: in vivo, Solanum tuberosum L. cv `Norchip`; details: for % Eyes Sprouted: 25° C., control 98, LSD (0.05) 14
# Experimental: as §2
# [10] = Theoretical saturated headspace concentration calculated from known vapor pressures; type: physicochemical; details: calculated from known vapor pressures by Ideal Gas Law
# Experimental: Because these compounds were difficult to quantitate by gas chromatography at the concentration levels in saturated headspaces, theoretical saturated concentrations were calculated by converting known vapor pressures of each compound at 25° C. to molar concentrations using the Ideal Gas Law, […], where n/V is the molar concentration, P is the partial pressure (atm), R is the Ideal Gas constant (0.0821 l atm/mol ° K.), and T is the temperature (° K.).
# potato tubers [11] = test: Tuber texture after removal from exposure to volatilized aromatics (Example 2); type: in vivo, Solanum tuberosum L. cv `Norchip`; details: 14 days after removal from exposure
# Experimental: as §1
# potato tubers [12] = test: Tuber sprouting after removal from exposure to volatilized aromatics for 1, 2, 4, 7 or 10 days (Example 2); type: in vivo, Solanum tuberosum L. cv `Norchip`; details: exposure for 10 days, 75 days after removal
# [13] = 1 day exposure, 14 days after removal, control +
# [14] = 2 days exposure, 14 days after removal
# [15] = 4 days exposure, 14 days after removal
# [16] = 7 days exposure, 14 days after removal
# [17] = 10 days exposure, 14 days after removal, control +
# [18] = 7 days in saturated headspace gas, 25° C.
# [19] = 7 days in saturated headspace gas, 25° C., control ++
# [20] = 14 days after removal from exposure
SMILES,"effectiveness of main oil components in inhibiting sprouting, weight loss and rot (potato)",Tuber Texture (potato tubers [1]; 10% emulsion (dip)),"Tuber Texture (potato tubers [1]; 100% (pure, sprayed))",tuber condition (potato tubers [2]),effect on tuber sprouting (potato tubers [3]),% Eyes Sprouted (potato tubers [3]) [%],Fungal Growth (fungi [4]; 1% emulsion (dip)),"Fungal Growth (fungi [4]; 100% (pure, sprayed))",Fungal Growth (fungi [5]; [13]),Fungal Growth (fungi [5]; [15]),Fungal Growth (fungi [5]; [16]),Fungal Growth (fungi [5]; [17]),effect on fungal growth (fungi [7]; [18]),Fungal Growth (fungi [7]; [19]),Solubility in Water at 25° C. [8],% Eyes Sprouted (potato tubers [9]; 1% emulsion (dip)) [%],% Eyes Sprouted (potato tubers [9]; 10% emulsion (dip)) [%],"% Eyes Sprouted (potato tubers [9]; 100% (pure, sprayed)) [%]",Concentration of Saturated Headspace at 25° C. [10] [nM],Temperature at Which Vapor Pressure Equals 1 mm Hg [8] [°C],other results
CC1=CCC2CC1C2(C)C (stereo not drawn) [α-pinene],effective,,,,,,,,,,,,,,,,,,,,
CC1CCC(C(C)C)C(=O)C1 (stereo not shown) [menthone/isomenthone],effective,,,,,,,,,,,,,,,,,,,,
"O=CCCc1ccccc1 [Hydrocinnamaldehyde, 3-phenyl-propanal]",,S,"S,N",firm and appeared healthy,completely inhibited sprouting,0,-,-,-,-,-,-,prevented any visible fungal growth,-,sl. soluble,25,0,0,,,"Fungal Growth (fungi [4]; 10% emulsion (dip)): ++; Fungal Growth (fungi [5]; [14]): -; % Eyes Sprouted (potato tubers [6]; 1 day exposure, control 96): 90%; % Eyes Sprouted (potato tubers [6]; 2 days exposure): 79%; % Eyes Sprouted (potato tubers [6]; 4 days exposure): 66%; % Eyes Sprouted (potato tubers [6]; 7 days exposure): 51%; % Eyes Sprouted (potato tubers [6]; 10 days exposure, control 100): 24%"
CC(C)=C1CC[C@@H](C)CC1=O [pulegone],effective,,,,,,,,,,,,,,,,,,,,
Oc1ccccc1 [Phenol],,,,"blackened, soft to the touch, and displayed evident tissue necrosis",completely inhibited sprouting,0,,,,,,,,,,,,,21000,40.1,"Tuber Texture (potato tubers [2]; control SS): S,N; Fungal Growth (fungi [7]; in vivo): -; effect on fungal growth (fungi [7]; in vivo): prevented any visible fungal growth"
O=Cc1ccccc1O [Salicylaldehyde],,"S,N","S,N",firm and appeared healthy,completely inhibited sprouting,0,++,-,-,-,-,-,prevented any visible fungal growth,-,,0,0,0,36000,,"Tuber Texture (potato tubers [1]; 1% emulsion (dip)): S,N; Fungal Growth (fungi [4]; 10% emulsion (dip)): -; Fungal Growth (fungi [5]; [14]): -; Fungal Growth (fungi [5]; [20]): lacked visible fungal growth; % Eyes Sprouted (potato tubers [6]; 1 day exposure, control 96): 0%; % Eyes Sprouted (potato tubers [6]; 2 days exposure): 0%; % Eyes Sprouted (potato tubers [6]; 4 days exposure): 0%; % Eyes Sprouted (potato tubers [6]; 7 days exposure): 0%; % Eyes Sprouted (potato tubers [6]; 10 days exposure, control 100): 0%; inhibition of tuber sprouting (potato tubers [6]; after 1 or more days of treatment): completely inhibited tuber sprouting; tuber firmness (potato tubers [11]): firm; sprouting (potato tubers [12]): remained unsprouted"
COC(=O)C=Cc1ccccc1 [Methyl cinnamate],,,,,suppressed sprouting to some degree,16,,,,,,,suppressed fungal growth,-,insoluble,,,,1600,77.4,
CCOC(=O)C=Cc1ccccc1 [Ethyl cinnamate],,,,,suppressed sprouting to some degree,64,,,,,,,,+,insoluble,,,,700,87.6,
C=C(C)C1CC=C(C)CC1 (stereo not shown) [limonene],effective,,,,,,,,,,,,,,,,,,,,
C=C1CCC2CC1C2(C)C (stereo not drawn) [β-pinene],effective,,,,,,,,,,,,,,,,,,,,
O=CC=Cc1ccccc1 [Cinnamaldehyde],,"S,N","S,N",firm and appeared healthy,completely inhibited sprouting,0,-,-,-,-,-,-,prevented any visible fungal growth,-,sl. soluble,0,0,0,1900,76.1,"tuber condition (potato tubers [1]; 1% emulsion): remained hard, with no necrosis or surface pitting; Fungal Growth (fungi [5]; [20]): a small amount of mycelia was detected in a bruised area; % Eyes Sprouted (potato tubers [6]; 1 day exposure, control 96): 62%; % Eyes Sprouted (potato tubers [6]; 2 days exposure): 80%; % Eyes Sprouted (potato tubers [6]; 4 days exposure): 64%; % Eyes Sprouted (potato tubers [6]; 7 days exposure): 24%; % Eyes Sprouted (potato tubers [6]; 10 days exposure, control 100): 0%; inhibition of tuber sprouting (potato tubers [6]; exposure for 7 or fewer days): did not completely inhibit sprouting; inhibition of tuber sprouting (potato tubers [6]; exposure for 10 days): completely inhibited sprouting; sprouting (potato tubers [12]): remained unsprouted; inhibition of sprouting (potato tubers [9]; 1% emulsion): completely inhibited sprouting without damaging the potato tubers"
"C=CCc1ccc(O)c(OC)c1 [Eugenol, reference compound]",,"SS,N","S,N",remained firm,no significant effect on tuber sprouting,94,++,-,,,,,especially heavy growth,++,,32,7,0,1600,78.4,
CC(C)c1ccc(C=O)cc1 [Cuminaldehyde],,"SS,N","SS,N",firm and appeared healthy,completely inhibited sprouting,0,-,-,-,-,-,-,prevented any visible fungal growth,-,insoluble,5,43,0,6400,58.0,"Fungal Growth (fungi [5]; [14]): -; % Eyes Sprouted (potato tubers [6]; 1 day exposure, control 96): 63%; % Eyes Sprouted (potato tubers [6]; 2 days exposure): 68%; % Eyes Sprouted (potato tubers [6]; 4 days exposure): 49%; % Eyes Sprouted (potato tubers [6]; 7 days exposure): 8%; % Eyes Sprouted (potato tubers [6]; 10 days exposure, control 100): 0%; inhibition of tuber sprouting (potato tubers [6]; exposure for 7 or fewer days): did not completely inhibit sprouting; inhibition of tuber sprouting (potato tubers [6]; exposure for 10 days): completely inhibited sprouting; sprouting (potato tubers [12]): remained unsprouted"
